Starred links: 1 amine or outer side, 2 acyl side, 3 side chain; linkers in the order of their positions; H or OH if unused. Non-standard residues stand in square brackets, D forms with d. Residues, ends and D or L forms follow the SMILES beside them. Groups on a side chain read outwards from the residue. *: point of attachment. γGlu = O=C(O)[C@H](CCC(=O)[*:2])N[*:1]; Palmitoyl = CCCCCCCCCCCCCCCC(=O)*; NMeF = CN[C@@H](Cc1ccccc1)C(=O)O
Key:
GPR10 [1] = target: T1, GPR10 (Homo sapiens, UniProt P49683); test: Competitive binding, [^125I]-PrRP31, CHO-K1 cells expressing GPR10; settings: competition with [^125I]-PrRP31, CHO-K1 cells expressing human GPR10; mean ± SEM, 2–5 independent experiments in duplicates; Cheng-Prusoff; read-out: Ki GPR10 [^125I]-PrRP31
T1 construct: host or cells: CHO-K1
T1 sequence (P49683 1-370): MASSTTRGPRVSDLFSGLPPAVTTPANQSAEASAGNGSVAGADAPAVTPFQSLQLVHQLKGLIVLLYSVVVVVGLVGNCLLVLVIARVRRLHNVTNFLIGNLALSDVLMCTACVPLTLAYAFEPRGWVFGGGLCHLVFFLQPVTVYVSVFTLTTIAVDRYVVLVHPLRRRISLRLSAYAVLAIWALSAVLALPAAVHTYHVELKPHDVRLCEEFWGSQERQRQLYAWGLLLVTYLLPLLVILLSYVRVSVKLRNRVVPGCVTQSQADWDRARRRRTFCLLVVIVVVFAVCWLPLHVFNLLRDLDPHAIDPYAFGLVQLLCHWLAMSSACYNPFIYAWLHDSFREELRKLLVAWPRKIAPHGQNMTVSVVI

NPFF-R2 [2] = target: T2, NPFF-R2 (Homo sapiens, UniProt Q9Y5X5); test: Intracellular Ca^2+ mobilization, AequoScreen CHO-K1 cells with NPFF-R2; format: cell-based; settings: CHO-K1 NPFF-R2 aequorin cells; peptides 10^−12 to 10^−5 M; mean ± SEM, three times in duplicates; read-out: EC50 intracellular Ca^2+ release, NPFF-R2
T2 construct: host or cells: CHO-K1 (AequoScreen, co-expressing aequorin)
T2 sequence (Q9Y5X5 whole entry): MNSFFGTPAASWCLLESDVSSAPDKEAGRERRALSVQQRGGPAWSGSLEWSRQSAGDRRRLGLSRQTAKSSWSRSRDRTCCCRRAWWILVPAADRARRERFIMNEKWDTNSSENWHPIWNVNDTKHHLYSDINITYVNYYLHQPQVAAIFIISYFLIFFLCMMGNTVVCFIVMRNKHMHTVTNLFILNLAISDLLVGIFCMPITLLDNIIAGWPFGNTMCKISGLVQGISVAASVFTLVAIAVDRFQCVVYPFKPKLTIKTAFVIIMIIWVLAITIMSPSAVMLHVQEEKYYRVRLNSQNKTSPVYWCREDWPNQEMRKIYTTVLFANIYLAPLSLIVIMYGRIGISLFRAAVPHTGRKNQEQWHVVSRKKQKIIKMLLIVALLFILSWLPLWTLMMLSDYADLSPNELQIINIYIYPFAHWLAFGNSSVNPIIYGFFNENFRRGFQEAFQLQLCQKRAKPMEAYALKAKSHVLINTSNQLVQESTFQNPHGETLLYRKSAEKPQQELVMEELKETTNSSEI
Method: The intracellular Ca^2+ level was measured using the AequoScreen stable CHO-K1 cell line containing NPFF-R2 purchased from Perkin Elmer according to the manufacturer’s protocol. Cells at 80–90% confluence cultured in media without selective antibiotics were detached (PBS pH 7.4 + 0.5 mM EDTA) and centrifuged. Cells resuspended in phenol red-free DMEM with 0.1% protease-free BSA and 5 µM coelenterazine h (Thermo Fisher Scientific Inc. Brand) were seeded at 50,000 cells/well in 96-well plates and incubated in the dark at RT with gentle agitation for 4 h. Peptides were tested at concentrations from 10^−12 to 10^−5 M. Luminescent light emission was recorded using a FlexStation 3 plate reader.
Ca^2+ release assay data are shown as the percentage of maximal response, and the results were analyzed by nonlinear regression as log agonist versus response using GraphPad software. Data are representative of at least three experiments, each performed in duplicate.

NPFF-R2 [3] = target: T2, NPFF-R2; test: Cell signaling by immunoblotting, CHO-K1 cells expressing NPFF-R2; format: cell-based; settings: dose-response 10^−11 to 10^−5 M, 5 min, 37 °C, immunoblot, at least two experiments
Method: Cells were seeded in 24-well plates at 30,000 cells/well in assay medium (growth medium without selective antibiotics) and were grown for 2 days. The day before the experiment, the medium was changed to serum-free medium. […] Cells were lysed with Laemmli sample buffer (62.5 mM Tris-HCl at pH 6.8, 2% SDS, 10% glycerol, 0.01% bromophenol blue, 5% β-mercaptoethanol, 50 mM NaF, and 1 mM Na3VO4). Samples were stored at −20 °C. Electrophoresis and immunoblotting were performed as described previously. For detection of signaling pathways, primary monoclonal antibodies (see Table 5 for the antibodies used) purchased from Cell Signaling Technology (Danvers, MA, USA) were used.
(§1) Experiments using immunoblotting were analyzed using one-way ANOVA followed by Dunnett’s post hoc test; p < 0.05 was considered statistically significant. Dose-response curves were obtained from nonlinear regression.

Y1 = target: T3, Y1 (Homo sapiens, UniProt P25929); test: Competitive and saturation binding, [^125I]-PYY, U2OS cells with Y1
T3 construct: host or cells: U2OS
T3 sequence (P25929 1-384): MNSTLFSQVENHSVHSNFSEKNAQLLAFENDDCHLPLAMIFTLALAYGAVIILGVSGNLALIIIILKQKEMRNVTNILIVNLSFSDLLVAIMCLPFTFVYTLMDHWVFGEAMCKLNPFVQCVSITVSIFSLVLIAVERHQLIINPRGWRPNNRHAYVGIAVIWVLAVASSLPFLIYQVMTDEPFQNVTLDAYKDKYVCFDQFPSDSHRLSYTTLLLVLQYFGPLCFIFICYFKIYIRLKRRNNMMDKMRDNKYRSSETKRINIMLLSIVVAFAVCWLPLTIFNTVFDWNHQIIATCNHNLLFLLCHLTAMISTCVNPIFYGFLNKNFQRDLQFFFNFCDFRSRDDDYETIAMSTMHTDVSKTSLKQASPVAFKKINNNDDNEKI
Method: (§2) Competition binding experiments were performed according to [45]. […] Binding experiments using U2OS cells were optimized and performed in assay buffer (50 mM Tris-Cl pH 7.4, 118 mM NaCl, 5 mM MgCl2, 4.7 mM KCl, 0.1% BSA) for cells stably expressing GHSR and (25 mM HEPES, 120 mM NaCl, 5 mM MgCl2, 4.7 mM KCl, 1 mM CaCl2, 0.5% BSA, 2 g/L glucose) for cells containing receptors Y1, Y2 and Y5. […] Cells were incubated for 60 min at room temperature (RT).
(§3) Experiments were carried out in duplicate at least three times, and Ki was calculated using the Cheng-Prusoff equation.
(§4) Data were analyzed by GraphPad Software (San Diego, CA, USA) and are presented as the means ± SEM. The saturation and competitive binding experiments were analyzed according to [46] using the Cheng-Prusoff equation [33]. The competitive binding curves were plotted compared to the best fit for single-binding site models, and half maximal inhibitory concentration (IC50) values were obtained from nonlinear regression analysis. From saturation binding experiments, the dissociation constant (Kd) and number of binding sites/cell (Bmax) were calculated. Inhibition constants (Ki) were calculated from IC50 values, Kd and the concentration of radioligands.

DOR = target: T4, DOR (Homo sapiens, UniProt P41143); test: Beta-lactamase reporter gene assay (FRET), DOR; format: cell-based; settings: β-lactamase assay, agonist mode, U2OS cells; mean ± SEM, 2–3 independent experiments in duplicates
T4 construct: host or cells: U2OS
T4 sequence (P41143 whole entry): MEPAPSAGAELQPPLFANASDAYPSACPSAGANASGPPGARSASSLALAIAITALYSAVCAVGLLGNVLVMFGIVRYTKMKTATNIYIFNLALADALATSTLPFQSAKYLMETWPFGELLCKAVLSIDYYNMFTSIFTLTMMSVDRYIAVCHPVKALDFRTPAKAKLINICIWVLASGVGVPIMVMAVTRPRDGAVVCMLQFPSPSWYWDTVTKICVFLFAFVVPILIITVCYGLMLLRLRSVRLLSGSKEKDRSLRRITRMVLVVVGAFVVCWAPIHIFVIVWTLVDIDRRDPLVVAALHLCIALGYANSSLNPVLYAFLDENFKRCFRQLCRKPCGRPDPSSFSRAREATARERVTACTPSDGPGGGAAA

Y2 = target: T5, Y2 (Homo sapiens, UniProt P49146); test: Competitive and saturation binding, [^125I]-PYY, U2OS cells with Y2
T5 construct: host or cells: U2OS
T5 sequence (P49146 1-381): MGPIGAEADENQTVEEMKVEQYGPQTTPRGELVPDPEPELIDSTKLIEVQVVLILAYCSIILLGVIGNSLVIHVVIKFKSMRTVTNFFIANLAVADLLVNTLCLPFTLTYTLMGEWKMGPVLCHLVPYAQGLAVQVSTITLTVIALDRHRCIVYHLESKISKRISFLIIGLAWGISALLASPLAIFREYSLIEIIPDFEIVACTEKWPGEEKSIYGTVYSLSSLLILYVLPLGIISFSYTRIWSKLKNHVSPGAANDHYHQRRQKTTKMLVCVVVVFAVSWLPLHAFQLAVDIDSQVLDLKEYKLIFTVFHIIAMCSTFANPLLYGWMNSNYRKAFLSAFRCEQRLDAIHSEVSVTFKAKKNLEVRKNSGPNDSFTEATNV
Method: as §2, §3, §4

MOR = target: T6, MOR (Homo sapiens, UniProt P35372); test: Beta-lactamase reporter gene assay (FRET), MOR; format: cell-based
T6 construct: host or cells: U2OS
T6 sequence (P35372 whole entry): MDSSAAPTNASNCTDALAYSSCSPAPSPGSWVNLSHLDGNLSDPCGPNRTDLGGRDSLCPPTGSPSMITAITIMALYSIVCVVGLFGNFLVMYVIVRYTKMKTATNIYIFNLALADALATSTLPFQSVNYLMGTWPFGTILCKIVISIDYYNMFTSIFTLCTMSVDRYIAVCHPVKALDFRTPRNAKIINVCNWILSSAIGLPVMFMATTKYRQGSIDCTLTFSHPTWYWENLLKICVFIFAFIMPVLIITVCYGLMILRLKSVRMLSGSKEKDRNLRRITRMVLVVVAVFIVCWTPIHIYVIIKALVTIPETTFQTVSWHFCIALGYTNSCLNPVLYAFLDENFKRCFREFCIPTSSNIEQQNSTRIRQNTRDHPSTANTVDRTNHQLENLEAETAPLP

ORL-1 = target: T7, ORL-1 (Homo sapiens, UniProt P41146); test: Beta-lactamase reporter gene assay (FRET), ORL-1; format: cell-based; settings: β-lactamase assay, agonist mode, U2OS cells; mean ± SEM, 2–3 independent experiments in duplicates
T7 construct: host or cells: U2OS
T7 sequence (P41146 whole entry): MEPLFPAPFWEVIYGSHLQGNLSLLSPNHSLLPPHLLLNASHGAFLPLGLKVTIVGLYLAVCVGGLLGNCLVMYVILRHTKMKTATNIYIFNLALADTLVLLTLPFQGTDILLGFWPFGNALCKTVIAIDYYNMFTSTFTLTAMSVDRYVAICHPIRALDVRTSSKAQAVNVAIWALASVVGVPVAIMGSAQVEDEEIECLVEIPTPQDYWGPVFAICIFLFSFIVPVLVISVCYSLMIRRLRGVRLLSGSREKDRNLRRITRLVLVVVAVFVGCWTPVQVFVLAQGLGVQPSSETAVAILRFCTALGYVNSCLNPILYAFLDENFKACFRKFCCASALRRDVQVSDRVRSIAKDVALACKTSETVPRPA

GPR10 [4] = target: T1, GPR10; test: Cell signaling by immunoblotting, CHO-K1 cells expressing GPR10; format: cell-based; settings: dose-response 10^−11 to 10^−5 M, 5 min, 37 °C, immunoblot, at least two experiments
Method: Activation of signaling pathways was studied in the CHO-K1 cell lines containing GPR10, NPFF-R2 and NPFF-R1. Cells were seeded in 24-well plates at 30,000 cells/well in assay medium (growth medium without selective antibiotics) and were grown for 2 days. The day before the experiment, the medium was changed to serum-free medium. […] Cells were lysed with Laemmli sample buffer (62.5 mM Tris-HCl at pH 6.8, 2% SDS, 10% glycerol, 0.01% bromophenol blue, 5% β-mercaptoethanol, 50 mM NaF, and 1 mM Na3VO4). Samples were stored at −20 °C. Electrophoresis and immunoblotting were performed as described previously. For detection of signaling pathways, primary monoclonal antibodies (see Table 5 for the antibodies used) purchased from Cell Signaling Technology (Danvers, MA, USA) were used.
as §1

KOR = target: T8, KOR (Homo sapiens, UniProt P41145); test: cell-based
T8 construct: host or cells: CHO-K1
T8 sequence (P41145 whole entry): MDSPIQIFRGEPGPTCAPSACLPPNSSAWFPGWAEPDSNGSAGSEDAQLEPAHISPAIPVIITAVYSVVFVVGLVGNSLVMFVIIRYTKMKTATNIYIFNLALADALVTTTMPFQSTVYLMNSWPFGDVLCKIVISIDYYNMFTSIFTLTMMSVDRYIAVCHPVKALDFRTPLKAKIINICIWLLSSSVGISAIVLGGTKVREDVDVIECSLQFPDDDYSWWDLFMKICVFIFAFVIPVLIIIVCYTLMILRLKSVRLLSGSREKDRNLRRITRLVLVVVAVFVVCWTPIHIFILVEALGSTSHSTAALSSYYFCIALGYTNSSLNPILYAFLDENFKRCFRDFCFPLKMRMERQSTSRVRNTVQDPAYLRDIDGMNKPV

Row | SMILES | Ki (GPR10 [1]) | EC50 (NPFF-R2 [2]) | EC50 of ERK activation (NPFF-R2 [3]) | Ki (Y1) | EC50 (DOR) | Ki (Y2) | EC50 (MOR) | EC50 (ORL-1) | EC50 of ERK activation (GPR10 [4]) | EC50 (KOR)
1 | CC(C)C[C@H](NC(=O)[C@H](N)Cc1ccc(O)cc1)C(=O)N(C)[C@@H](Cc1ccccc1)C(=O)N[C@@H](CCC(N)=O)C(=O)N1CCC[C@H]1C(=O)N[C@@H](CCC(N)=O)C(=O)N[C@@H](CCCN=C(N)N)C(=O)N[C@@H](Cc1ccccc1)C(N)=O [1DMe] (H-[dY]L[NMeF]QPQRF-NH2) | > 10 µM | 0.00082 ± 0.00015 µM | – | – | – | – | – | – | – | –
2 | CC(C)C[C@H](NC(=O)[C@H](N)Cc1ccc(O)cc1)C(=O)N(C)[C@@H](Cc1ccccc1)C(=O)N[C@@H](CCC(N)=O)C(=O)N1CCC[C@H]1C(=O)N[C@@H](CCC(N)=O)C(=O)N[C@@H](CCCNC(=N)N)C(=O)N[C@@H](Cc1ccccc1)C(N)=O [1DMe] (H-[dY]L[NMeF]QPQRF-NH2) | – | – | in nanomolar concentrations | – | – | – | – | – | – | –
3 | CCCCCCCCCCCCCCCC(=O)N[C@@H](CCC(=O)NCCCC[C@H](NC(=O)[C@@H](NC(=O)[C@H](CCC(=O)O)NC(=O)[C@H](CCSC)NC(=O)[C@H](CO)NC(=O)[C@H](Cc1c[nH]cn1)NC(=O)[C@H](CCCNC(=N)N)NC(=O)[C@H](Cc1c[nH]cn1)NC(=O)[C@@H](NC(=O)[C@H](CCCNC(=N)N)NC(=O)[C@@H](N)CO)[C@@H](C)O)[C@@H](C)CC)C(=O)N[C@H](C(=O)N1CCC[C@H]1C(=O)N[C@@H](CC(=O)O)C(=O)N[C@H](C(=O)N[C@@H](CC(N)=O)C(=O)N1CCC[C@H]1C(=O)N[C@@H](C)C(=O)N[C@@H](Cc1c[nH]c2ccccc12)C(=O)N[C@@H](Cc1ccc(O)cc1)C(=O)N[C@@H](C)C(=O)N[C@@H](CO)C(=O)N[C@@H](CCCNC(=N)N)C(=O)NCC(=O)N[C@H](C(=O)N[C@@H](CCCNC(=N)N)C(=O)N1CCC[C@H]1C(=O)N[C@H](C(=O)NCC(=O)N[C@@H](CCCNC(=N)N)C(=O)N[C@@H](Cc1ccccc1)C(N)=O)C(C)C)[C@@H](C)CC)[C@@H](C)CC)[C@@H](C)O)C(=O)O [Palm^11-PrRP31] (H-SRTHRHSMEIK([γGlu-Palmitoyl])TPDINPAWYASRGIRPVGRF-NH2) | – | 0.0187 ± 0.00131 µM | – | > 10 µM | > 10 µM | > 10 µM | > 10 µM | > 10 µM | in the nanomolar range | > 10 µM

Source: publication PMC8396344, “Palmitoylation of Prolactin-Releasing Peptide Increased Affinity for and Activation of the GPR10, NPFF-R2 and NPFF-R1 Receptors: In Vitro Study” (International Journal of Molecular Sciences, 2021)
